From patent US12162855B2, “Tetrahydroquinolino derivatives for the treatment of metastatic and chemoresistant cancers” (THE TRUSTEES OF PRINCETON UNIVERSITY, priority 2018, dated 2024)

Key:
Aldh3a1 = biological target: T1, Aldh3a1 (Homo sapiens, UniProt P30838); assay: ALDEFLUOR assay in MCF7 cells transduced with human Aldh3a1; assay type: cell-based; settings: concentrations below 10 μM
T1 construct: expressed in transfected cells; host or cells: MCF7, lentiviral pLex vector
T1 sequence (P30838 1-453): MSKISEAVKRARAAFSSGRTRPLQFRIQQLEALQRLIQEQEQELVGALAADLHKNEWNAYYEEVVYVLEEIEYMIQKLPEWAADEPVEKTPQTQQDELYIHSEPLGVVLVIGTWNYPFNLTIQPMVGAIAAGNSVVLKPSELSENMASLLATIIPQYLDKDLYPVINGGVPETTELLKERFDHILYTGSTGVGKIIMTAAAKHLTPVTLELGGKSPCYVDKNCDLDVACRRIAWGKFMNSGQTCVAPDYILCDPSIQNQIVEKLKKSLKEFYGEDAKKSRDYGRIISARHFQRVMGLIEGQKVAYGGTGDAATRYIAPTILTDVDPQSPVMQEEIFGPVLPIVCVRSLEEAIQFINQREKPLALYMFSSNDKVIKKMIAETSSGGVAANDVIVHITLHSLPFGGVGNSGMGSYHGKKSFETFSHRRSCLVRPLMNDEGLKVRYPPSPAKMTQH
Experimental: The coding sequences of Aldh1a1, Aldh1a2, Aldh1a3 and Aldh3a1 were cloned from cDNA made from pooled human reference RNA samples. Cloned sequences flanked by Age1 and Xho1 restriction sites were inserted into the pLex lentiviral plasmid. Clones were sequenced and compared against NCBI expressed sequence tags (ESTs) for accuracy. […]. Viruses were collected and filtered at 0.45 μm, then cells were transduced using polybrene (8 μg/mL) for 12 hours, followed by culture with 1 μg/mL puromycin for the duration of experiments. All viral transduction and selection was performed on a cell population-wide basis.
(§1) Cells were counted, centrifuged and resuspended at 1,000,000 cells/mL in ALDEFLUOR™ buffer (Stemcell Technologies). ALDEFLUOR™ substrate (Stemcell Technologies, 1:200) and test compound or 1 mM DEAB were added to cell suspension and incubated at 37° C. for 45 minutes with vortexing every 15 minutes. Cells were centrifuged and resuspended in ALDEFLUOR™ buffer with DAPI at 5 μg/mL. Samples were analyzed with the BD LSR2 flow cytometry platform. Gating was performed using DEAB as a negative control.

Aldh1a2 = biological target: T2, Aldh1a2 (Homo sapiens, UniProt O94788); assay: ALDEFLUOR assay in 293T cells transiently transfected with human Aldh1a2; assay type: cell-based; settings: concentrations below 10 μM
T2 construct: expressed in transfected cells; host or cells: 293T, transient transfection
T2 sequence (O94788 1-518): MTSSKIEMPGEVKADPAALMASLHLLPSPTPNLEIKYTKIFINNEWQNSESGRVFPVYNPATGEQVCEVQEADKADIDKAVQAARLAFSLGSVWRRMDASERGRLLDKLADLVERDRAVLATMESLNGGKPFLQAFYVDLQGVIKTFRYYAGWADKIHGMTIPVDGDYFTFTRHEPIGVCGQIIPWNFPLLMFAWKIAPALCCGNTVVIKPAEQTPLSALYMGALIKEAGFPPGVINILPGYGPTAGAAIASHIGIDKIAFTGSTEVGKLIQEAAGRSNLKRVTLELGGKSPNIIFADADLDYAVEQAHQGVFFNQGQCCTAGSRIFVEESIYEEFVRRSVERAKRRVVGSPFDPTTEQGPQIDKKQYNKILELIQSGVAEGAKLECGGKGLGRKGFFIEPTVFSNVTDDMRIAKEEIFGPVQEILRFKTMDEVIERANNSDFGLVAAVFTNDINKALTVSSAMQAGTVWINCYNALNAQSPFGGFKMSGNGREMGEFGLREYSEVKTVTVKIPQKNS
Experimental: The coding sequences of Aldh1a1, Aldh1a2, Aldh1a3 and Aldh3a1 were cloned from cDNA made from pooled human reference RNA samples. Cloned sequences flanked by Age1 and Xho1 restriction sites were inserted into the pLex lentiviral plasmid. Clones were sequenced and compared against NCBI expressed sequence tags (ESTs) for accuracy. Viral production of each enzyme was performed by transfection into the 293T packaging cell line using PEI along with PsPax2 and VSVG packaging vectors. Viruses were collected and filtered at 0.45 μm, then cells were transduced using polybrene (8 μg/mL) for 12 hours, followed by culture with 1 μg/mL puromycin for the duration of experiments. All viral transduction and selection was performed on a cell population-wide basis.
as §1

SMILES	inhibition of Aldh3a1 activity (FIG. 2A) (Aldh3a1)	inhibition of Aldh1a2 activity (FIG. 2B) (Aldh1a2)
CCc1cnccc1C(=O)Nc1cc2c(cc1F)NC(=O)CC2 [MBE1, 3-ethyl-N-(7-fluoro-2-oxo-1,2,3,4-tetrahydroquinolin-6-yl)isonicotinamide]	does not inhibit	
CCc1ccccc1C(=O)Nc1cc2c(cc1F)NC(=O)CC2 [MBE1.5, 2-ethyl-N-(7-fluoro-2-oxo-1,2,3,4-tetrahydroquinolin-6-yl)benzamide]		does not inhibit
